Values quoted from earlier work, collected in patent EP4420767A1, “MODULAR GREEN SOLVENT COMPOSITION FOR PREPARING POLYMERIC MEMBRANES” (Soft Chemicals S.r.l., priority 2023, dated 2024).

Settings: DMSO alone

In the case of `C[S+](C)[O-]` [DMSO, Dimethyl sulfoxide], the freezing point is listed as 18 °C.
